The source of these data is patent US12685735B2 (Foghorn Therapeutics Inc., priority 2020, dated 2026).

Bounds are passed on as bounds.

One experiment addresses BRM (Homo sapiens, UniProt P51531). Kind of experiment: ATPase catalytic activity assay of BRM (ADP-Glo). The experiment is classed as biochemical. Particulars: for IC50: read-out: BRM IC50 (μM)*. An outline of the steps:
(§1)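 ADP formed by the ATPase reaction was quantified by ADP-Glo luminescence. After the reaction, unconsumed ATP was depleted (40 min, room temperature), then ADP was converted to ATP for luciferase detection (60 min, room temperature) before reading on a luminometer.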
For orientation: ADP-Glo turns the ADP formed in a reaction into a luminescent signal.

The next experiment concerns the target BRG-1 (Homo sapiens, UniProt P51532). The experiment in a line: ATPase catalytic activity assay of BRG-1 (ADP-Glo). It is filed as biochemical. Particulars: ATPase catalytic activity, ADP-Glo; for IC50: read-out: BRG1 IC50 (μM)*; for Emax: read-out: BRG1 Max % Inhibition. The method in brief: as §1

Sequence of BRM (P51531 whole entry): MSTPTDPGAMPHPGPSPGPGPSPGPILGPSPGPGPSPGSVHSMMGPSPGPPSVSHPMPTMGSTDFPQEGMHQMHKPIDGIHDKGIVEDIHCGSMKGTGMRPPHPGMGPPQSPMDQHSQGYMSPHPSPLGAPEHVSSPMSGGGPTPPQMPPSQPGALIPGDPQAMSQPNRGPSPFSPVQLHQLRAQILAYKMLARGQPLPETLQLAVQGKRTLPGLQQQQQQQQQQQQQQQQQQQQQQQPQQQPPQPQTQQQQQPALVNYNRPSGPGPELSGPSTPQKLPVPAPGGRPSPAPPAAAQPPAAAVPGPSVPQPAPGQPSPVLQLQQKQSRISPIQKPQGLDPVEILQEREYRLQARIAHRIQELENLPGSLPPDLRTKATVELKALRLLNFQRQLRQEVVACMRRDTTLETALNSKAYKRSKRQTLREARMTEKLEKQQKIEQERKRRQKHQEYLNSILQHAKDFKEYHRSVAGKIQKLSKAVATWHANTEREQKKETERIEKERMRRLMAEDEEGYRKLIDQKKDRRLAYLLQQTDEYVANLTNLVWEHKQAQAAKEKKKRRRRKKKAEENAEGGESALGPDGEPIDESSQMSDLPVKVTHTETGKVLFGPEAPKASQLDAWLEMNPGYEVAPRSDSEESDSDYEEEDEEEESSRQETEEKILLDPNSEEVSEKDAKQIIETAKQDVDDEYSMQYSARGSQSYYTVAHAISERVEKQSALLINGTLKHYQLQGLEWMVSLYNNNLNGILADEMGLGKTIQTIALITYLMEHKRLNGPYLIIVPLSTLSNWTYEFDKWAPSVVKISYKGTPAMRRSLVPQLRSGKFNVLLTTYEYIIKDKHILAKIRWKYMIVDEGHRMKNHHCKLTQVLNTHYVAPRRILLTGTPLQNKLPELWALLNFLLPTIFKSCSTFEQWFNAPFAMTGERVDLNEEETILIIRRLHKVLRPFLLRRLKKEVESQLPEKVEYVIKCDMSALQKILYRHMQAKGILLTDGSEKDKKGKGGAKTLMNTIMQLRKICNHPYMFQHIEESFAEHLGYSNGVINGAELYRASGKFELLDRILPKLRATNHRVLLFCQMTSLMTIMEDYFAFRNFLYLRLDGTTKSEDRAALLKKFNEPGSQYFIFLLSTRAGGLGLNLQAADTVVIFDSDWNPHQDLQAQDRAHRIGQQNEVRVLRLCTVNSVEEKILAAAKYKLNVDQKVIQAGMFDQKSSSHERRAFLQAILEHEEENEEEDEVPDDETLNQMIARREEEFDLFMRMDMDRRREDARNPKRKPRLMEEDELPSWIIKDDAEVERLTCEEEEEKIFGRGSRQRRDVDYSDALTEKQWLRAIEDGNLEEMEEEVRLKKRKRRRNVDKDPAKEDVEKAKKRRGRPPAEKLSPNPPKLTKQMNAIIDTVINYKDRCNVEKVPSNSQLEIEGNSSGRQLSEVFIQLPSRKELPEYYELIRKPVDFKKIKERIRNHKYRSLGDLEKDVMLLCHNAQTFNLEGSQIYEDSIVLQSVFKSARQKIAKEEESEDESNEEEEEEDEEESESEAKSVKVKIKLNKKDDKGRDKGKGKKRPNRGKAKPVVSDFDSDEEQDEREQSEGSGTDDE
Sequence of BRG-1 (P51532 whole entry): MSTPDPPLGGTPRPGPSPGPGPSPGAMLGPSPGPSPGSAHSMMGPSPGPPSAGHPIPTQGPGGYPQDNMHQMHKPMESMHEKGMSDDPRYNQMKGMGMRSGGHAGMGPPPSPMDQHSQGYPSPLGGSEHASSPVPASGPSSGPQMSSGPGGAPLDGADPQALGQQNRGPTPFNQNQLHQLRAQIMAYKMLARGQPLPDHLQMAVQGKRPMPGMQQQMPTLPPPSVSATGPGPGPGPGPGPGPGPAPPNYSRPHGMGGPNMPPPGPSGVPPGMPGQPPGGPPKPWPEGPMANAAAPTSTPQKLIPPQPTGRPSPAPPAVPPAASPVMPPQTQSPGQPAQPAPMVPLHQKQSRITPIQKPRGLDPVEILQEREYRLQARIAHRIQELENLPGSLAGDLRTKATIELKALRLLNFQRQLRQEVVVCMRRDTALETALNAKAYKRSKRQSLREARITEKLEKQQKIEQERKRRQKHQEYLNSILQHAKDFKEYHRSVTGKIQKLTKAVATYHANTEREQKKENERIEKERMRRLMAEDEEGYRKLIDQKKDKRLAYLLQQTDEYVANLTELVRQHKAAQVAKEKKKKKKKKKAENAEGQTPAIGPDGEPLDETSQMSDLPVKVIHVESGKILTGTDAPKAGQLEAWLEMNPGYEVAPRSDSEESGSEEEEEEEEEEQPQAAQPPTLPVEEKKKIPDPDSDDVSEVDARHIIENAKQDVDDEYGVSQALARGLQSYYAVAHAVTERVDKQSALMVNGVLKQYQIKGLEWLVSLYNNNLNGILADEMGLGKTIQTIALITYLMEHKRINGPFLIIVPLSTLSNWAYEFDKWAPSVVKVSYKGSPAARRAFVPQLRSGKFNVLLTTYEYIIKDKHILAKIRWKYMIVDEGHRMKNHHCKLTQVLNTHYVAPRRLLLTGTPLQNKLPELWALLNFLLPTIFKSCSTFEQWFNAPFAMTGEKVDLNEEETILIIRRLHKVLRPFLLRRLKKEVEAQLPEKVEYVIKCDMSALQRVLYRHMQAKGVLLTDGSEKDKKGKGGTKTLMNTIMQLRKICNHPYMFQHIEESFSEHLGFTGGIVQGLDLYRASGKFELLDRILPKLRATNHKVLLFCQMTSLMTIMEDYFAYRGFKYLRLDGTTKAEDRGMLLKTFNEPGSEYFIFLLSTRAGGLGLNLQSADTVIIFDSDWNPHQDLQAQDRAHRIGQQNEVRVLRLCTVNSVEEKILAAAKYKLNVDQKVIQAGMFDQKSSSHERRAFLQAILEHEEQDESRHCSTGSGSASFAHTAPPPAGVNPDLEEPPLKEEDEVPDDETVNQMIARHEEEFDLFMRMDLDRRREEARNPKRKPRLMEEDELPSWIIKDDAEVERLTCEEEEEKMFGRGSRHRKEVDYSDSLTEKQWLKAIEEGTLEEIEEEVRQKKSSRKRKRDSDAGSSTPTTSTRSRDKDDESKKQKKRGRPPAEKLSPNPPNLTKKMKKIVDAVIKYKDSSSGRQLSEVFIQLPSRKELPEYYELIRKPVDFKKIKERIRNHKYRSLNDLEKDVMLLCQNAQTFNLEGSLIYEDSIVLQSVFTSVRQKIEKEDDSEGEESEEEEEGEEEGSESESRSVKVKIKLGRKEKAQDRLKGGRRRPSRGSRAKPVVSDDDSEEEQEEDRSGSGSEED

By IC50 is commonly meant the concentration needed to halve the response being measured. As to `Cc1cc(-c2cccc(-c3csc(NC(=O)CNC(=O)c4cccc(C(C)(C)CO)c4)n3)c2)nc(C)n1` [Compound 93], at BRM, the “BRM Max % Inhibition” value was >95% and the IC50 was < 0.1 µM. Further, on BRG-1, the IC50 lay in the range of 0.1 to 1 µM and the Emax is > 90%.
With `CNc1cc(-c2cccc(-c3csc(NC(=O)CNC(=O)c4cccc(C(C)(C)CN)c4)n3)c2)ccn1` [Compound 57, 3-(1-amino-2-methylpropan-2-yl)-N-(2-((4-(3-(2-(methylamino)pyridin-4-yl)phenyl)thiazol-2-yl)amino)-2-oxoethyl)benzamide], on BRM, the “BRM Max % Inhibition” value is recorded as >95% and the IC50 is < 0.1 µM. For the same molecule, at BRG-1, the IC50 lay in the range of 0.1 to 1 µM and the Emax is > 80%.
On to `Cn1ccc(-c2cccc(-c3csc(NC(=O)CNC(=O)c4cccc(C(C)(C)CN)c4)n3)c2)n1` [Compound 69, 3-(1-amino-2-methylpropan-2-yl)-N-(2-((4-(3-(1-methyl-1H-pyrazol-3-yl)phenyl)thiazol-2-yl)amino)-2-oxoethyl)benzamide], for which, on BRM, the “BRM Max % Inhibition” value is on record as >70% and the IC50 lay in the range of 0.1 to 1 µM. Moreover, at BRG-1, the IC50 is > 5 µM and the Emax is > 30%.
Regarding `Cn1ncc(-c2cccc(-c3csc(NC(=O)CNC(=O)c4ccc5c(c4)C(C)(CO)CC5)n3)n2)n1` (stereo not drawn) [Compound 155, 3-(hydroxymethyl)-3-methyl-N-(2-((4-(6-(2-methyl-2H-1,2,3-triazol-4-yl)pyridin-2-yl)thiazol-2-yl)amino)-2-oxoethyl)-2,3-dihydro-1H-indene-5-carboxamide], at BRM, the “BRM Max % Inhibition” value is reported as >90% and the IC50 was 0.1 to 1 µM. At BRG-1, the IC50 was in the range of 1 to 5 µM and the Emax is > 60%.
On the same counts, the results for `COC[C@H](NC(=O)c1cccc(S(=O)(=O)C(C)C)c1)C(=O)Nc1nc(-c2cccc(-c3ccnc(C)c3)c2)cs1` [Compound 32, (S)-3-(isopropylsulfonyl)-N-(3-methoxy-1-((4-(3-(2-methylpyridin-4-yl)phenyl)thiazol-2-yl)amino)-1-oxopropan-2-yl)benzamide] are >95%, 0.1 to 1 µM, 0.1 to 1 µM and > 80%.
In the case of `C[C@@H]1CN(c2cccc(-c3csc(NC(=O)CNC(=O)c4ccc5c(c4)C(C)(C#N)CNC5)n3)c2)C[C@H](C)O1` (stereo partly drawn) [Compound 310, 4-cyano-N-(2-((4-(3-((cis)-2,6-dimethylmorpholino)phenyl)thiazol-2-yl)amino)-2-oxoethyl)-4-methyl-1,2,3,4-tetrahydroisoquinoline-6-carboxamide], on BRM, the “BRM Max % Inhibition” value is >95% and the IC50 is < 0.1 µM. Also, at BRG-1, the 50% inhibitory concentration (IC50) was 0.1 to 1 µM and the Emax is > 95%.
`COc1cccc(-c2csc(NC(=O)[C@H](C)NC(=O)c3ccc4c(c3)[C@](C)(F)COC4)n2)c1` [Compound 309, (S)-4-fluoro-N-((S)-1-((4-(3-methoxyphenyl)thiazol-2-yl)amino)-1-oxopropan-2-yl)-4-methylisochromane-6-carboxamide]: at BRM, the “BRM Max % Inhibition” value is reported as >95% and the IC50 is < 0.1 µM. Besides, at BRG-1, the IC50 was in the range of 0.1 to 1 µM and the Emax was > 95%.
As to `C[C@@H]1CN(c2cccc(-c3csc(NC(=O)CNC(=O)c4ccc5c(c4)CCCCO5)n3)n2)C[C@H](C)O1` [Compound 338, N-(2-((4-(6-((cis)-2,6-dimethylmorpholino)pyridin-2-yl)thiazol-2-yl)amino)-2-oxoethyl)-2,3,4,5-tetrahydrobenzo[b]oxepine-7-carboxamide], at BRM, the “BRM Max % Inhibition” value is listed as >90% and the IC50 was 0.1 to 1 µM. For the same molecule, on BRG-1, the 50% inhibitory concentration (IC50) was 0.1 to 1 µM and the Emax was > 90%.
On to `C[C@@H]1CN(c2cccc(-c3csc(NC(=O)CNC(=O)c4ccc5c(c4)[C@@]4(COC5)CC4(F)F)n3)n2)C[C@H](C)O1` [Compound 410, (R)-N-(2-((4-(6-((cis)-2,6-dimethylmorpholino)pyridin-2-yl)thiazol-2-yl)amino)-2-oxoethyl)-2,2-difluorospiro[cyclopropane-1,4′-isochromane]-6′-carboxamide], for which, at BRM, the “BRM Max % Inhibition” value is >95% and the IC50 was < 0.1 µM. At BRG-1, the IC50 fell in the range of 1 to 5 µM and the Emax is > 95%.
Turning to `C[C@@H]1CN(c2cccc(-c3csc(NC(=O)CNC(=O)c4cccc([C@]5(F)C[C@@H](F)C5)c4)n3)n2)C[C@H](C)O1` [Compound 357, 3-((1S,3S)-1,3-difluorocyclobutyl)-N-(2-((4-(6-((cis)-2,6-dimethylmorpholino)pyridin-2-yl)thiazol-2-yl)amino)-2-oxoethyl)benzamide], on BRM, the “BRM Max % Inhibition” value is reported as >90% and the half-inhibitory concentration (IC50) was in the range of 0.1 to 1 µM. Also, at BRG-1, the IC50 fell in the range of 0.1 to 1 µM and the Emax is > 90%.
Turning to `Cc1nccc(-c2cccc(-c3csc(NC(=O)CNC(=O)c4ccc5c(c4)[C@](C)(CO)CC5)n3)n2)n1` [Compound 215], on BRM, the “BRM Max % Inhibition” value was >95% and the IC50 was < 0.1 µM. For the same molecule, at BRG-1, the IC50 lay within 0.1 to 1 µM and the Emax is > 80%.
As for `COc1cccc(-c2csc(NC(=O)CNC(=O)c3cc(F)c4c(c3)[C@@](C)(C#N)COC4)n2)c1` [Compound 269, (S)-4-cyano-8-fluoro-N-(2-((4-(3-methoxyphenyl)thiazol-2-yl)amino)-2-oxoethyl)-4-methylisochromane-6-carboxamide], on BRM, the “BRM Max % Inhibition” value is >90% and the IC50 was in the range of 0.1 to 1 µM. At BRG-1, the IC50 is > 5 µM and the Emax was > 90%.
On the same counts, the results for `C[C@@]1(C#N)COCc2ccc(C(=O)NCC(=O)Nc3nc(-c4cccc([C@@]56CCOC[C@@H]5C6)n4)cs3)cc21` [Compound 292, (R)-N-(2-((4-(6-((1R,6S)-3-oxabicyclo[4.1.0]heptan-6-yl)pyridin-2-yl)thiazol-2-yl)amino)-2-oxoethyl)-4-cyano-4-methylisochromane-6-carboxamide] are >95%, < 0.1 µM, 0.1 to 1 µM and > 95%.
On the same counts, the results for `C[C@@]1(C#N)COCc2ccc(C(=O)NCC(=O)Nc3nc(-c4cccc(N5CC(F)(F)C5)c4)cs3)cc21` [Compound 342, (R)-4-cyano-N-(2-((4-(3-(3,3-difluoroazetidin-1-yl)phenyl)thiazol-2-yl)amino)-2-oxoethyl)-4-methylisochromane-6-carboxamide] are >95%, < 0.1 µM, 0.1 to 1 µM and > 95%.
In the case of `Cc1cc(-c2cccc(-c3csc(NC(=O)CNC(=O)c4ccc5c(c4)[C@](C)(CO)CC5)n3)n2)ncn1` [Compound 203, (3R)-3-(hydroxymethyl)-3-methyl-N-[2-[[4-[6-(6-methylpyrimidin-4-yl)-2-pyridyl]thiazol-2-yl]amino]-2-oxo-ethyl]indane-5-carboxamide], at BRM, the “BRM Max % Inhibition” value is >95% and the IC50 is < 0.1 µM. At BRG-1, the IC50 was 0.1 to 1 µM and the Emax is > 95%.
With `Cc1cc(-c2cccc(-c3csc(NC(=O)CNC(=O)c4ccc5c(c4)[C@@](C)(CO)CC5)n3)n2)ncn1` [Compound 204, (3S)-3-(hydroxymethyl)-3-methyl-N-[2-[[4-[6-(6-methylpyrimidin-4-yl)-2-pyridyl]thiazol-2-yl]amino]-2-oxo-ethyl]indane-5-carboxamide], on BRM, the “BRM Max % Inhibition” value was >95% and the IC50 is < 0.1 µM. For the same molecule, at BRG-1, the IC50 is 0.1 to 1 µM and the Emax is > 90%.
Turning to `CC(C)(CO)c1cccc(C(=O)NCC(=O)Nc2nc(-c3cccc(C#N)c3)cs2)c1` [Compound 106], on BRM, the “BRM Max % Inhibition” value was >80% and the IC50 was 1 to 5 µM. In addition, on BRG-1, the IC50 was 1 to 5 µM and the Emax was > 30%.
As to `C[C@@H]1CN(c2cccc(-c3csc(NC(=O)CNC(=O)c4ccc5c(c4)[C@@]4(CCC[C@H]4O)CC5)n3)c2)C[C@H](C)O1` [Compound 188, (1R,2R)-N-(2-((4-(3-((cis)-2,6-dimethylmorpholino)phenyl)thiazol-2-yl)amino)-2-oxoethyl)-2-hydroxy-2′,3′-dihydrospiro[cyclopentane-1,1′-indene]-6′-carboxamide], on BRM, the “BRM Max % Inhibition” value is recorded as >90% and the IC50 fell in the range of 0.1 to 1 µM. Besides, at BRG-1, the IC50 lay within 1 to 5 µM and the Emax was > 50%.
Consider `C[C@]1(CO)CCc2ccc(C(=O)NCC(=O)Nc3nc(-c4cccc(-c5cccnc5O)n4)cs3)cc21` [Compound 191, (S)-N-(2-((4-(2′-hydroxy-[2,3′-bipyridin]-6-yl)thiazol-2-yl)amino)-2-oxoethyl)-3-(hydroxymethyl)-3-methyl-2,3-dihydro-1H-indene-5-carboxamide], for which, on BRM, the “BRM Max % Inhibition” value is given as >90% and the IC50 lay in the range of 0.1 to 1 µM. In addition, on BRG-1, the concentration for half-maximal inhibition (IC50) lay in the range of 0.1 to 1 µM and the Emax is > 80%.
In the case of `C[C@@H]1CN(c2cccc(-c3csc(NC(=O)CNC(=O)c4cccc([C@]5(C)C[C@H](O)C5)c4)n3)c2)C[C@H](C)O1` [Compound 393, N-(2-((4-(3-((cis)-2,6-dimethylmorpholino)phenyl)thiazol-2-yl)amino)-2-oxoethyl)-3-((1s,3s)-3-hydroxy-1-methylcyclobutyl)benzamide], on BRM, the “BRM Max % Inhibition” value is >95% and the IC50 is 0.1 to 1 µM. For the same molecule, at BRG-1, the IC50 was > 5 µM and the Emax was > 95%.
On the same counts, the results for `Cc1cc(C(=O)NCC(=O)Nc2nc(-c3cccc(-c4ccncc4)c3)cs2)cc(C(C)(C)CN)c1C` [Compound 97] are >90%, 0.1 to 1 µM, 1 to 5 µM and > 70%.
